Assay results published in article PMC2897236 (Anesthesia and analgesia, 2009).
“Also recorded” adds a separate entry of the source. Like-named read-outs stand apart in the source and are kept apart here.

Columns and labels:
GABAA receptors = settings: modulation of GABAA receptors; cited from earlier work
[1] = read-out: Anesthetic EC50; anesthetizing concentration in animals; cited from earlier work
GLIC = target: T1, GLIC (Gloeobacter violaceus, UniProt Q7NDN8); settings: for Hill Coefficient: Hill (one-site) fit of inhibition of GLIC currents, mean ± se; for modulation of GLIC: at anesthetizing concentrations
T1 sequence (Q7NDN8 44-359): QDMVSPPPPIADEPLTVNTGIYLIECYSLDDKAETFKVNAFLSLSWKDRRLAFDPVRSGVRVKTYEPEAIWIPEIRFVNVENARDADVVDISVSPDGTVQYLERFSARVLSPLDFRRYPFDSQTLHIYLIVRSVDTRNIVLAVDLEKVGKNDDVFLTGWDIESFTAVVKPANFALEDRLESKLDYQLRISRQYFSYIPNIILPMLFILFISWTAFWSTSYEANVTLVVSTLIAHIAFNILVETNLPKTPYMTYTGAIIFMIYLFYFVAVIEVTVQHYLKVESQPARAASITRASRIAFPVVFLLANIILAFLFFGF

[2] = tested on: GABAA receptors containing a δ subunit; settings: cited from earlier work
[3] = tested on: α2 β4 neuronal nicotinic acetylcholine receptors; settings: cited from earlier work
[4] = tested on: α3β2 neuronal nicotinic acetylcholine receptors; settings: cited from earlier work
[5] = tested on: α2β2 neuronal nicotinic acetylcholine receptors; settings: 75mM ethanol; cited from earlier work
[6] = tested on: α4β2 neuronal nicotinic acetylcholine receptors; settings: cited from earlier work
[7] = tested on: α4β4 neuronal nicotinic acetylcholine receptors; settings: 75mM ethanol; cited from earlier work
homomeric α7 receptors = settings: 25–50 mM ethanol, response is variable; cited from earlier work
5HT3 receptors = settings: cited from earlier work
[8] = tested on: α3 β4 neuronal nicotinic acetylcholine receptors; settings: cited from earlier work
glycine receptors = settings: cited from earlier work
5HT3A receptors = settings: 1 MAC of halothane; cited from earlier work
α4 β2 nACh receptors = settings: inhibition; cited from earlier work
[9] = cited from earlier work
α4β4 nACh receptors = settings: nitrous oxide at 0.6 atm; cited from earlier work
GABA receptors = settings: nitrous oxide at 0.6 atm; cited from earlier work
α4β2 nACh receptors = settings: nitrous oxide at 0.6 atm; cited from earlier work
glycine α1 receptors = settings: enhancement of glycine currents; cited from earlier work
glycine α1 β receptors = settings: enhancement of glycine currents; cited from earlier work
[10] = IC50_1, two-site model, apparent affinity for site 1
[11] = IC50_2, two-site model, apparent affinity for site 2

With `CCOC(=O)c1cncn1[C@H](C)c1ccccc1` (single isomer, unassigned) [R isomer] as the compound, how does the Hill Coefficient (GABAA receptors) read?
The Hill Coefficient was 1.9.

With `CCOC(=O)c1cncn1[C@@H](C)c1ccccc1` (single isomer, unassigned) [S isomer] as the compound, how does the Hill Coefficient (GABAA receptors) read?
The Hill Coefficient was 2.9.

With `FC(F)OC(F)C(F)(F)F` (stereo not drawn) [Desflurane] as the compound, how does the EC50 [1] read?
The EC50 was 560 µM.

And the “concentration at which inhibition of GLIC was produced” value (“concentration at which inhibition” for short) (GLIC)?
The value was 0.01 % of MAC.

And the “effect on currents through GLIC (current tracing)” value (from here on “effect on currents through GLIC”) (GLIC; 0.5 mM desflurane)?
Its value is “inhibit currents through GLIC”.

What about the “Hill Coefficient” value (GLIC) of the same compound?
Its value is 0.25 ± 0.05.

And the “Hill Coefficient” value (GLIC; listed as desflurane)?
The value was 0.25.

And the IC50 (GLIC; [10])?
The IC50 was 0.01 µM.

And the IC50 (GLIC; [11])?
Its IC50 is 300 µM.

What does the source list for `CCO` [Ethanol]?
lowest potentiating concentration [2]: 3 mM; effect on currents ([3]; 75mM ethanol): potentiates currents; effect on GLIC currents (GLIC; 200 mM ethanol compared to controls (p > 0.05)): no effect; effect on GLIC currents (GLIC; 200 mM ethanol compared to controls (p > 0.05), listed as ethanol): did not modulate channel currents; modulation of GLIC (GLIC): did not modulate GLIC; sensitivity to ethanol [4]: not sensitive to ethanol; effect on currents [5]: potentiates currents; effect on currents ([6]; 75mM ethanol): potentiates currents; effect on currents [7]: potentiates currents; effect on receptors (homomeric α7 receptors): inhibits; maximal increase in currents (5HT3 receptors; ethanol 50 to 200 mM): ≤ 50%; sensitivity to ethanol [8]: not sensitive to ethanol

Which results are given for `CCOC(=O)c1cncn1[C@H](C)c1ccccc1` [Etomidate]?
effect on GLIC currents relative to anesthetic concentrations (GLIC): inhibitory only at concentrations above those used to achieve anesthesia; effect on currents through GLIC (current tracing) (GLIC; 50 μM etomidate): inhibit currents through GLIC; Hill Coefficient (GLIC): not different from 1; potentiation of currents through glycine receptors (glycine receptors; 300μM etomidate): 29%

For `FC(F)(F)C(Cl)Br` (stereo not drawn) [Halothane], which EC50 [1] is on record?
Its EC50 is 230 µM.

And the “concentration at which inhibition” value (GLIC)?
Its value is 1 % of MAC.

What about the “effect on currents through GLIC” value (GLIC; 0.25 mM halothane) of the same compound?
Its value is “inhibit currents through GLIC”.

What about the “Hill Coefficient” value (GLIC) of the same compound?
The value was 0.27 ± 0.04.

And the “Hill Coefficient” value (GLIC; listed as halothane)?
Its value is 0.27.

And the IC50 (GLIC; [10])?
Its IC50 is 0.3 µM.

What about the IC50 (GLIC; [11]) of the same compound?
Its IC50 is 1100 µM.

What about the “potentiation of 5HT3A receptors” value (5HT3A receptors) of the same compound?
The value was “approximately 200%”.

With `FC(F)OC(Cl)C(F)(F)F` (stereo not drawn) [Isoflurane] as the compound, how does the IC50 ([3]; α2 β4 isoform) read?
The IC50 was 25 µM.

What about the EC50 [1] of the same compound?
The EC50 was 280 µM.

And the “concentration at which inhibition” value (GLIC)?
Its value is 1 % of MAC.

What about the “effect on currents through GLIC” value (GLIC; 0.3 mM isoflurane) of the same compound?
Its value is “inhibit currents through GLIC”.

And the “Hill Coefficient” value (GLIC)?
Its value is 0.32 ± 0.07.

And the “Hill Coefficient” value (GLIC; listed as isoflurane)?
Its value is 0.32.

What about the IC50 ([6]; α4β2 isoform) of the same compound?
Its IC50 is 82 µM.

What about the “potentiation of 5HT3 receptor function” value (5HT3 receptors; anesthetic concentration raised to 10 MAC) of the same compound?
Its value is > 100%.

What about the “enhancement of 5HT3 receptor function” value (5HT3 receptors; at MAC) of the same compound?
The value was “less than 50%”.

And the IC50 ([8]; α3 β4 isoform)?
Its IC50 is 56 µM.

And the Hill number (α4 β2 nACh receptors)?
The Hill number was 1.3.

What about the IC50 (α4 β2 nACh receptors) of the same compound?
The IC50 was 85 µM.

For `[N-]=[N+]=O` [Nitrous Oxide], which “modulation of GLIC” value (GLIC) is on record?
Its value is “did not modulate GLIC”.

What about the “potentiation of glycine receptor function” value (glycine receptors; nitrous oxide at 0.6 atm) of the same compound?
Its value is “approximately 30%”.

And the “Anesthetic EC50” value ([9]; MAC in humans)?
The value was 1.04 atm ([7]).

What about the inhibition (α4β4 nACh receptors) of the same compound?
The inhibition was 7%.

What about the “potentiation of GABA receptor function” value (GABA receptors) of the same compound?
The value was ~20%.

What about the inhibition (α4β2 nACh receptors) of the same compound?
The inhibition was 39%.

And the inhibition (5HT3 receptors; nitrous oxide at 0.6 atm)?
The inhibition was “approximately 15%”.

What does the source list for `CC(C)c1cccc(C(C)C)c1O` [Propofol]?
EC50 [1]: 1.9 µM; lowest concentration inhibiting currents (GLIC): 2 % of its anesthetic EC50; effect on currents through GLIC (current tracing) (GLIC; 1 μM propofol): inhibit currents through GLIC; Hill Coefficient (GLIC): 0.42 ± 0.08; Hill Coefficient (GLIC; listed as propofol): 0.42; EC50 (glycine α1 receptors): 16 µM; EC50 (glycine α1 β receptors): 27 µM; Hill number (α4 β2 nACh receptors): 2.9; IC50 (α4 β2 nACh receptors): 19 µM

For `FCOC(C(F)(F)F)C(F)(F)F` [Sevoflurane], which EC50 [1] is on record?
The EC50 was 330 µM.

What about the “concentration at which inhibition” value (GLIC) of the same compound?
The value was 1 % of MAC.

And the “effect on currents through GLIC” value (GLIC; 0.3 mM sevoflurane)?
The value was “inhibit currents through GLIC”.

And the “Hill Coefficient” value (GLIC)?
The value was 0.27 ± 0.1.

And the “Hill Coefficient” value (GLIC; listed as sevoflurane)?
Its value is 0.27.

What about the “effect on currents through 5HT3 receptors” value (5HT3 receptors; at MAC) of the same compound?
Its value is “inhibiting rather than enhancing currents”.

For `[Xe]` [Xenon], which “effect on GLIC currents” value (GLIC; 0.8 atm xenon) is on record?
Its value is “significantly inhibited currents”.

What about the “effect on currents through GLIC” value (GLIC; 80 % atm xenon) of the same compound?
Its value is “inhibit currents through GLIC”.

And the “Hill Coefficient” value (GLIC)?
Its value is 1.9 ± 0.47.

What about the “Hill Coefficient” value (GLIC; listed as xenon) of the same compound?
Its value is “not different from 1; also recorded: not significantly different than 1”.

And the “Anesthetic EC50” value ([9]; MAC of xenon in humans)?
The value was 0.71 atm ([5]).
